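96-well plates; 48 h exposure; 5 concentrations. Endpoints by linear interpolation between flanking doses. Not reached: highest tested concentration assigned. The concentration for 50% growth inhibition is given as GI50.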 Calls of active or inactive are those of the source. Cut-off read from the data, not from the text of the source: active = GI50 up to about 1.1 µM and inactive = higher.
Assays:
Assay in all cases: DTP human tumour cell line panel, 48 h
BT-549 = system: BT-549
DMS-114 = system: DMS-114
DLD-1 = system: DLD-1
DMS-273 = system: DMS-273
LXFL 529 = system: LXFL 529
HOP-18 = system: HOP-18
KM-20L2 = system: KM-20L2
XF498 = system: XF498
RXF 631 = system: RXF 631

Row | Compound | GI50 (BT-549) | GI50 (DLD-1) | GI50 (LXFL 529) | GI50 (KM-20L2) | further results
1 | Cc1nn(CN2CCN(C)CC2)c(=S)n1/N=C/c1ccc(-c2ccc(Cl)cc2Cl)o1 | > 100 µM (inactive) | – | – | – | –
2 | N/C(=N\c1ccc(Cl)cc1)NS(=O)(=O)c1c(C(F)(F)F)cccc1C(F)(F)F | 29.3 µM (inactive) | – | – | – | –
3 | CCOC(=O)CNC(=O)c1nc[nH]c1/N=N/N(C)C | – | > 100 µM (inactive) | > 100 µM (inactive) | – | GI50 (DMS-114): > 100 µM (inactive); GI50 (DMS-273): > 100 µM (inactive)
4 | CC(=O)/C(=C/n1c(=S)[nH]c2ccccc21)C(=O)Nc1ccccc1C | > 100 µM (inactive) | – | – | – | –
5 | CC1=C/C(=C2/N=C(N(C)C)SS2)C(C)=N1.[O-][Cl+3]([O-])([O-])O | – | > 100 µM (inactive) | > 100 µM (inactive) | > 100 µM (inactive) | GI50 (DMS-114): > 100 µM (inactive); GI50 (HOP-18): > 100 µM (inactive); GI50 (DMS-273): > 100 µM (inactive); GI50 (XF498): > 100 µM (inactive)
6 | COc1nc2c(nc(N)n2C2OC(CO)C(O)C(O)C2O)c(=O)[nH]1 (stereo unspecified) | – | > 100 µM (inactive) | > 100 µM (inactive) | > 100 µM (inactive) | GI50 (HOP-18): > 100 µM (inactive); GI50 (XF498): > 100 µM (inactive)
7 | CC(=O)NNc1nc(C)c(C(=O)/C=C/c2ccc(NC(C)=O)cc2)s1 | – | > 100 µM (inactive) | – | > 100 µM (inactive) | GI50 (RXF 631): > 100 µM (inactive); GI50 (HOP-18): > 100 µM (inactive); GI50 (DMS-273): > 100 µM (inactive)
8 | CCOc1ccccc1NC(=O)CC(C(=O)OC)C(=O)C(=O)OC (stereo unspecified) | – | – | > 100 µM (inactive) | > 100 µM (inactive) | GI50 (RXF 631): > 100 µM (inactive); GI50 (DMS-114): > 100 µM (inactive); GI50 (HOP-18): > 100 µM (inactive); GI50 (DMS-273): > 100 µM (inactive)
9 | S=C(Nc1ccc2c(c1)oc1ccccc12)c1cccs1 | 39.9 µM (inactive) | – | – | – | –
10 | COc1ccc(OC)c2c(C(=O)O)c(Cc3ccccc3)ccc12 | – | > 100 µM (inactive) | > 100 µM (inactive) | > 100 µM (inactive) | GI50 (DMS-114): > 100 µM (inactive); GI50 (HOP-18): > 100 µM (inactive); GI50 (DMS-273): > 100 µM (inactive); GI50 (XF498): > 100 µM (inactive)
11 | N#CC(C#N)=Cc1c[nH]c(=O)[nH]c1=O | > 100 µM (inactive) | – | – | – | –
12 | O=S(=O)(SCc1ccccc1)C(c1ccccc1)c1ccccc1 | – | 13.2 µM (inactive) | 26.5 µM (inactive) | 20.6 µM (inactive) | GI50 (DMS-114): 19.3 µM (inactive); GI50 (DMS-273): 27.4 µM (inactive); GI50 (XF498): 58.1 µM (inactive)
13 | O=C1c2ccccc2CCC1C(O)(C(F)(F)F)C(F)(F)F (stereo unspecified) | > 100 µM (inactive) | – | – | – | –
14 | C/C(=C\c1ccccc1)C(=O)NCc1ccc(C(=O)NCCc2ccccc2)cc1 | 28.9 µM (inactive) | – | – | – | –
15 | CC(C)(O)C1COC2=C1C(=O)c1ccccc1C2=O (stereo unspecified) | 18.2 µM (inactive) | – | – | – | –
16 | O=C1O/C(=C\c2ccccc2)N(c2ccccc2)C1=O | > 100 µM (inactive) | – | – | – | –
17 | CCCCCCCCCCCCOC(=S)NC | – | 17.1 µM (inactive) | 17 µM (inactive) | 19.4 µM (inactive) | GI50 (DMS-114): 20.8 µM (inactive); GI50 (HOP-18): 19 µM (inactive); GI50 (DMS-273): 19.5 µM (inactive); GI50 (XF498): 20 µM (inactive)

Row | Compound | GI50 (BT-549) | GI50 (DLD-1) | GI50 (LXFL 529) | GI50 (KM-20L2) | further results
18 | Cc1nc2sc(CCl)nn2c(=O)c1Cl | 2.73 µM (inactive) | – | – | – | –
19 | COc1ccc(-n2nnc3c(C#N)c(-c4ccccc4)c(C)n3c2=O)cc1 | > 100 µM (inactive) | – | – | – | –
20 | CC1(C)CCC[C@@]2(C)C1CC[C@@]1(CO1)[C@@H]2/C=C\C(C=O)CC=O (stereo partly specified) | > 100 µM (inactive) | – | – | – | –
21 | C/C(CC(=O)NCCc1ccccc1)=N\NC(=O)C[n+]1ccccc1 | – | > 100 µM (inactive) | > 100 µM (inactive) | > 100 µM (inactive) | GI50 (RXF 631): > 100 µM (inactive); GI50 (DMS-114): > 100 µM (inactive); GI50 (DMS-273): > 100 µM (inactive); GI50 (XF498): > 100 µM (inactive)
22 | CCNc1ncnc2sc(SCc3ccccc3)nc12 | > 100 µM (inactive) | – | – | – | –
23 | Nc1ccc(C(=O)N/C(=C\c2cccc([N+](=O)[O-])c2)c2nc3c(O)nc(S)nc3[nH]2)cc1 | > 100 µM (inactive) | > 100 µM (inactive) | > 57.7 µM (inactive) | > 100 µM (inactive) | GI50 (RXF 631): 37.2 µM (inactive); GI50 (DMS-114): > 86.3 µM (inactive); GI50 (XF498): 16.9 µM (inactive)
24 | COC1C=C(Nc2cccc(Cl)c2)C(=O)C1 (stereo unspecified) | – | 51.4 µM (inactive) | 50.8 µM (inactive) | 55.5 µM (inactive) | GI50 (DMS-114): 34.3 µM (inactive); GI50 (HOP-18): 19.1 µM (inactive); GI50 (DMS-273): 50.4 µM (inactive); GI50 (XF498): 26.9 µM (inactive)
25 | CCOP(=O)(OCC)[C@]12C[C@@H](C)C=C[C@H]1COC2=O | > 100 µM (inactive) | – | – | – | –
26 | Cc1nc(C(N)=S)sc1C(=O)CC(=O)C(=O)Nc1ccc(Br)cc1 | > 100 µM (inactive) | – | – | – | –
27 | O=C(CNC(=O)OCc1ccccc1)NCCCCC(NC(=O)OCc1ccccc1)C(=O)O (stereo unspecified) | > 100 µM (inactive) | – | – | – | –
28 | N#CCCN(CCC#N)CCN(CCN(CCC#N)CCC#N)CCN(CCC#N)CCC#N | > 100 µM (inactive) | – | – | – | –
29 | CCN(CC)C(=S)N/N=C/c1cc([N+](=O)[O-])ccc1O | 4.54 µM (inactive) | – | – | – | –
30 | COc1ccc(C#CC(=O)O)c(OC)c1 | > 100 µM (inactive) | – | – | – | –
31 | COc1ccc2c(c1)C/C(=C\c1cccc3ccccc13)C2=O | 5.26 µM (inactive) | – | – | – | –
32 | CCOC(=O)C1=CN/C(=C(/C)C(=O)OC)SC1C(=O)OCC (stereo unspecified) | > 90.6 µM (inactive) | – | – | – | –
33 | COCCCNc1c2ccccc2nc2ccccc12 | 10.9 µM (inactive) | – | – | – | –
34 | COc1ccc(N2C(=O)C3c4[nH]c5ccccc5c4C4CCCCC4C3C2=O)cc1 (stereo unspecified) | – | 49 µM (inactive) | 22.2 µM (inactive) | 39.4 µM (inactive) | GI50 (DMS-114): 8.63 µM (inactive); GI50 (HOP-18): 22.4 µM (inactive); GI50 (DMS-273): 6.75 µM (inactive)
